The values below come from patent US9901648B2, “Stabilization of biomolecules using sugar polymers” (THE REGENTS OF THE UNIVERSITY OF CALIFORNIA, priority 2012, dated 2018).

Series [1] addresses T1, hen egg white lysozyme (Gallus gallus, UniProt P00698).
T1 construct: reconstituting hen egg white lysozyme (0.1 mg/mL, DPBS, pH 7.4) as received without further purification; purchased Sigma-Aldrich; host or cells: hen egg white
Nature of the series: Lyophilization stability activity assay (10 lyophilization cycles, EnzChek lysozyme activity). It counts as biochemical. As for the experimental part: (§1) Lysozyme-glycopolymer conjugate (Lyz-6). To a 1.5 mL Lo-Bind® centrifuge tube was added thiopropionyl hen egg white lysozyme (LyzSH) (70 μL, 10 mg/mL, DPBS, pH 8.0) and 6 (16 mg, 0.71 μmol, 15 eq) and the entire reaction was diluted to a final volume of 500 μL (DPBS, pH 8.0) before storage at 4° C. for 3 hours. The resulting mixture was purified by FPLC (50 mM PB, 150 mM NaCl, pH 7.4), fractions were concentrated by centriprep ultrafiltration (MWCO 3 kDa, DPBS, pH 7.4) and stored at 4° C. Samples were diluted 5 fold before the EnzChek® lysozyme activity assay was employed to measure fraction activity. In a typical assay 50 μL of diluted sample was incubated with 50 μL of Micrococcus luteus labeled with FITC (1 mg/mL) at 37° C. for 1 hour. Subsequently, fluorescence of lysed cell membrane and thus lysozyme activity was measured as FITC fluorescence (abs 480 nm/em 530 nm) and quantified relative to known standards.
Wild-type lysozyme was prepared by reconstituting hen egg white lysozyme (0.1 mg/mL, 1 eq, DPBS, pH 7.4) as received without further purification. Samples were further diluted to 0.021 mg/mL (1 kU/mL) in 20 μL aliquots prior to application of lyophilization or thermal insults.
Wild-type lysozyme samples mixed with glyco-polymer were prepared by adding trehalose polymer (Poly 5-8, 1 or 100 eq relative to lysozyme) to a solution of lysozyme (0.1 mg/mL, DPBS, pH 7.4) before storage at 4° C. Samples were further diluted to a lysozyme concentration of 0.021 mg/mL (1 kU/mL) in 20 μL aliquots prior to application of lyophilization or thermal insult.
Wild-type lysozyme samples mixed with trehalose were prepared by adding trehalose (1 or 100 eq relative to the number of trehalose monomer units in Poly 5-8) to a solution of lysozyme (0.1 mg/mL, DPBS, pH 7.4) before storage at 4° C. […]
Wild-type lysozyme was prepared by reconstituting hen egg white lysozyme (0.1 mg/mL, DPBS, pH 7.4) as received without further purification. […] Statistics were calculated utilizing the Students t test; % confidence as +/−=t*(standard deviation)/(number of trials)^(½) with p<1−% confidence/100.

In series [2] the target is T1, hen egg white lysozyme. The experiment in a line: Thermo-stability (heat burden) assay, 90° C., EnzChek lysozyme activity. It counts as biochemical. As for the experimental part: as §1, with “standards. […]” for “standards.”
Wild-type lysozyme was prepared by reconstituting hen egg white lysozyme (0.1 mg/mL, DPBS, pH 7.4) as received and was stored without further purification at 4° C. in 20 μL aliquots. […] Activities of stressed samples were measured relative to identical aliquots that were not exposed to heat. […] Statistics were calculated utilizing the Students t test; % confidence as +/−=t*(standard deviation)/(number of trials)^(½) with p<1−% confidence/100.

Series [3] relates to horseradish peroxidase (HRP). The experiment in a line: Horseradish peroxidase stabilization at 70° C. (TMB activity). The settings on record: 70° C. for 30 min; HRP 75 μg/mL; 7500 equivalent of trehalose. Type of series: biochemical. As for the experimental part: The activity of horseradish peroxidase (HRP) after exposure to a temperature of 70° C. for 30 minutes was tested, and the results are provided in FIG. 28. The activity of HRP was tested through reaction with 3,3′,5,5′-tetramethylbenzidine (TMB), which produces a blue by-product. HRP samples were prepared without any additive, with 100 equivalent of P1-P4, or 7500 equivalent of trehalose, which is equal to the trehalose in the P1 sample. Heated samples were then tested for HRP reactivity and the percent original activities were calculated using same concentration of HRP without heating and additive (FIG. 28). After heating, HRP in solution without any additive, only 46% of the original activity was observed. […] The same concentration of trehalose maintained only 80% of HRP activity. All samples were repeated six times and their p value compared with no additive were <0.001.
Horseradish Peroxidase Stabilized by P1-P4 at 70° C. […] Stock solutions of 100 equiv of P1, P2, P3 and P4 and 7500 equiv of trehalose were also prepared in the same buffer. 2 μL aliquots of HRP solution were mixed with 2 μL aliquots of each polymer and trehalose solution to give final concentration of 75 μg/mL HRP or with only buffer. […] The assay was repeated 6 times following the know procedure with tetramethylbenzemidine (TMB).

In a further series the target is glucose oxidase (GOX) (Aspergillus niger, UniProt P13006). The experiment in a line: Glucose oxidase stabilization at 50° C. (Amplex Red assay). It counts as biochemical. The following applies: 50° C. for 30 min; GOX 0.1 mg/mL; 7500 equivalent of trehalose. As for the experimental part:
Trehalose glycopolymers P1 through P4 were also tested for glucose oxidase (GOX) stabilization against 50° C. heat for 30 min. The activity of GOX was evaluated using Amplex® Red Glucose/Glucose Oxidase Assay Kit (Invitrogen). GOX reacts with D-glucose to form H2O2, which can then react with the Amplex® in the presence of horseradish peroxidase (HRP) to generate resorufin and can be detected by fluorescence. GOX samples were prepared without any additive, with 100 equivalent of P1-P4, and 7500 equivalent of trehalose, which is equal to the number of repeating units in the P1. All samples were heated to 50° C. for 30 min and repeated six times. Heated samples were then tested for GOX reactivity and percent original activities were calculated using same concentration of GOX without heating and additive (FIG. 29).
2 μL aliquots of GOX solution were mixed with 2 μL aliquots of each polymer and trehalose solution or buffer only to give the final concentration of 0.1 mg/mL GOX. […] Activity was measured using Amplex® Red Glucose/Glucose Oxidase Assay kit following the product manual procedures.

The target in series [4] is Recombinant Human Insulin (Homo sapiens, UniProt P01308). Nature of the series: Insulin stabilization at 90° C. (native gel). The following applies: 90° C. for 1 h; insulin 1 mg/mL; 750 equiv of trehalose. As for the experimental part: Prepared P1, P2, P3, and the same concentration of trehalose as an additive were tested for stabilization of insulin against heating under 90° C. for 1 h. After heating all the samples were loaded on the native gel (FIG. 30). Insulin without any additive was denatured and the band was almost gone in native gel. […] The MALDI-TOF data provides that insulin, originally 5.8 kDa, denatures into mainly two fragments after heating (data not shown). This is due to the breakage of two disulfide bridges liking a and β chain of insulin.
Sequence of Recombinant Human Insulin (P01308 25-54 limits assumed): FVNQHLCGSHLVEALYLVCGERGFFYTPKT
Sequence of Recombinant Human Insulin (P01308 90-110 limits assumed): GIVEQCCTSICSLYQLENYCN
Insulin was dissolved in pH 7.4 D-PBS buffer (1 mg/mL). The samples were prepared by adding 10 equiv of P1, P2, and P3 or 750 equiv of trehalose into the insulin solution. […] Other samples with polymers or trehalose were heated as 90° C. for 1 h and ran through the native gel.

The test system of the next series is β-galactosidase (β-Gal). The settings on record: lyophilization cycles; β-Gal 0.1 mg/mL; 7500 equiv of trehalose.

T1 sequence (P00698 19-147): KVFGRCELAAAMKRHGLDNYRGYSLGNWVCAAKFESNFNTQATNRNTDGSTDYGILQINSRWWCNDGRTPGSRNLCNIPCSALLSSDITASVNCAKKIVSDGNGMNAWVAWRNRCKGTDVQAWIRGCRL
Sequence of glucose oxidase (GOX) (P13006 17-605, species assumed): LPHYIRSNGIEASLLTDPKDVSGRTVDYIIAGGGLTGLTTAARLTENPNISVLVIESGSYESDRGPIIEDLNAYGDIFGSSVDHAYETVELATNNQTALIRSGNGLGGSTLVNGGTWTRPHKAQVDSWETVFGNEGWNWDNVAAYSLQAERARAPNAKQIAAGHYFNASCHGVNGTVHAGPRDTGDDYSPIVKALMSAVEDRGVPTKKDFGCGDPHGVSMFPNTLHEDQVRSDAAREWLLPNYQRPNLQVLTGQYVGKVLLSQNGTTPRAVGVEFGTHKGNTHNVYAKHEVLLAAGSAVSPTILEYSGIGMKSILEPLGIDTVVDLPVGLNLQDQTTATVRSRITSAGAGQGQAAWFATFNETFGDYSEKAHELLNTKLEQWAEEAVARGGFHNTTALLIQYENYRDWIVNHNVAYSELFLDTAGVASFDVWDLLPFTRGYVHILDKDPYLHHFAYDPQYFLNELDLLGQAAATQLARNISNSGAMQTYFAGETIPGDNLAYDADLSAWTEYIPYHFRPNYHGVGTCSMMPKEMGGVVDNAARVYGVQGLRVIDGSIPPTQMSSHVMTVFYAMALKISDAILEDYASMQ
Procedure for β-galactosidase (β-Gal): The stabilization of β-galactosidase (β-Gal) was also tested after multiple lyophilization cycles. β-Gal is known to be easily denatured by lyophilization or freeze-thaw cycles (Pikal-Cleland and Capenter, 2001). Activity of β-Gal was measured by reacting with o-nitrophenyl-β-D-galactoside (ONPG), which releases o-nitrophenol, a yellow color product that absorbs light at 420 nm.
0.4 mg/mL P3-Gal solution was prepared in pH 7.0 10 mM sodium phosphate buffer. 50 μL aliquots of β-Gal solution were mixed with 150 μL of buffer or 150 μL of polymer (100 equiv) or trehalose (7500 equiv) in H2O to result 0.1 mg/mL protein solution. Aliquots of each sample were frozen by immersion in liquid nitrogen before lyophilization. The samples were lyophilized for 12 h for one cycle under 1 mbar. After each cycle 200 μL of H2O was added and the lyophilization repeated for 3 cycles and 4 cycles. The control was stored in 4° C. until the activity assay was performed. The assay includes 6 repeats by reacting with o-nitrophenyl-β-D-galactoside (ONPG).

Turning to `OC[C@H]1O[C@H](O[C@H]2O[C@H](CO)[C@@H](O)[C@H](O)[C@H]2O)[C@H](O)[C@@H](O)[C@@H]1O` [trehalose], on hen egg white lysozyme [1] (trehalose at equivalent concentrations to that in the 100-fold polymers), the “retention of lysozyme activity with added trehalose” value is listed as 18-31%. Also, the “activity retention with added trehalose” value at hen egg white lysozyme [2] (90° C. for 1 hour, highest trehalose concentration (100 eq Poly8 monomer units)) came to 31%. Further, in series [3], the “percent original HRP activity” value came out at 80%. The “percent original GOX activity” value on glucose oxidase (GOX) is 72%. Besides, the “insulin band on native gel after heating” value in series [4] was “greatly reduced”. Moreover, the “β-Gal original activity maintained” value with β-galactosidase (β-Gal) was determined as 45%.
Take “wild-type lysozyme: hen egg white lysozyme reconstituted as received, unmodified”: in the series with hen egg white lysozyme [1] (0.1 mg/mL, DPBS pH 7.4, conjugate or protein alone, no additive), the “activity relative to unexposed sample stored at 4° C.” value is roughly 20%. Also, in the series with hen egg white lysozyme [1] (lysozyme 0.021 mg/mL (1 kU/mL), conjugate or protein alone), the “retention of original activity” value stood at 16%. In addition, the “remaining activity after heat burden” value in the series with hen egg white lysozyme [2] (90° C. for 3 hours, 0.1 mg/mL, conjugate or protein alone) is “no activity remained”.
